Measurements from the NIST ThermoML archive (doi:10.1016/j.jct.2012.06.031).
Numbers after ± are expanded uncertainties.

Experiments:
[1] = refractive index (Na D-line) (dimensionless); xn = mol fraction of the nth substance listed; conditions: 101 kPa, Liquid, Standard Abbe refractometry
[2] = xn = mol fraction of the nth substance listed; conditions: 101 kPa, Liquid; for viscosity: Concentric cylinders viscometry; for mass density: Vibrating tube method
[3] = refractive index (Na D-line) (dimensionless); conditions: 101.33 kPa, Liquid, Standard Abbe refractometry
[4] = 101 kPa, Liquid; for viscosity: Concentric cylinders viscometry; for mass density: Vibrating tube method

c1ccncc1 [pyridine] + OCCCO
x1 = 1
Conditions | mass density, [2] [kg/m3] | refractive index, [1] | viscosity, [2] [mPa·s]
288.15 K | 988.061 ± 0.12 | 1.51184 ± 0.00031 | 1.03 ± 0.0089
293.15 K | 983.038 ± 0.12 | 1.509 ± 0.00031 | 0.9588 ± 0.0087
298.15 K | 978.006 ± 0.12 | 1.50616 ± 0.00031 | 0.8943 ± 0.0086
303.15 K | 972.967 ± 0.12 | 1.50331 ± 0.00031 | 0.8355 ± 0.0085
308.15 K | 967.913 ± 0.12 | 1.50048 ± 0.00031 | 0.7837 ± 0.0084
313.15 K | 962.849 ± 0.12 | 1.49769 ± 0.00031 | 0.7354 ± 0.0083
318.15 K | 957.769 ± 0.12 | 1.49493 ± 0.00031 | 0.6912 ± 0.0082
323.15 K | 952.673 ± 0.12 | 1.49219 ± 0.00031 | 0.6507 ± 0.0081

CCCO [propan-1-ol]
Conditions | mass density, [4] [kg/m3] | refractive index, [3] | viscosity, [4] [mPa·s]
288.15 K | 807.947 ± 0.15 | 1.3878 ± 0.00031 | 2.514 ± 0.013
293.15 K | 803.963 ± 0.15 | 1.38576 ± 0.00031 | 2.208 ± 0.012
298.15 K | 799.953 ± 0.15 | 1.38369 ± 0.00031 | 1.95 ± 0.011
303.15 K | 795.915 ± 0.15 | 1.38162 ± 0.00031 | 1.727 ± 0.011
308.15 K | 791.84 ± 0.15 | 1.37918 ± 0.00031 | 1.542 ± 0.01
313.15 K | 787.721 ± 0.15 | 1.37695 ± 0.00031 | 1.378 ± 0.0097
318.15 K | 783.553 ± 0.15 | 1.37469 ± 0.00031 | 1.236 ± 0.0094
323.15 K | 779.334 ± 0.15 | 1.37231 ± 0.00031 | 1.124 ± 0.0091

OCC(O)CO [glycerol] + c1ccncc1
x2 = 0
Conditions | mass density, [2] [kg/m3] | refractive index, [1] | viscosity, [2] [mPa·s]
288.15 K | 1264.08 ± 0.22 | 1.47552 ± 0.00033 | 2298.3 ± 120
293.15 K | 1261.03 ± 0.22 | 1.47427 ± 0.00033 | 1425.1 ± 65
298.15 K | 1257.94 ± 0.22 | 1.47301 ± 0.00033 | 911.98 ± 36
303.15 K | 1254.83 ± 0.22 | 1.47175 ± 0.00033 | 600.83 ± 20
308.15 K | 1251.68 ± 0.21 | 1.47048 ± 0.00033 | 406.93 ± 12
313.15 K | 1248.48 ± 0.21 | 1.4692 ± 0.00033 | 282.61 ± 6.7
318.15 K | 1245.24 ± 0.21 | 1.46791 ± 0.00033 | 201.03 ± 3.9
323.15 K | 1242.08 ± 0.21 | 1.46674 ± 0.00033 | 147.15 ± 2.2

CC(O)CO (stereo unspecified) [1,2-propanediol]
Conditions | mass density, [4] [kg/m3] | refractive index, [3] | viscosity, [4] [mPa·s]
288.15 K | 1040.08 ± 0.14 | 1.43411 ± 0.00033 | 81.21 ± 0.6
293.15 K | 1036.46 ± 0.14 | 1.43247 ± 0.00033 | 58.75 ± 0.25
298.15 K | 1032.8 ± 0.14 | 1.43081 ± 0.00033 | 43.44 ± 0.2
303.15 K | 1029.09 ± 0.14 | 1.42915 ± 0.00033 | 32.75 ± 0.15
308.15 K | 1025.34 ± 0.13 | 1.42751 ± 0.00033 | 25.16 ± 0.12
313.15 K | 1021.55 ± 0.13 | 1.42581 ± 0.00033 | 19.65 ± 0.092
318.15 K | 1017.73 ± 0.13 | 1.42407 ± 0.00033 | 15.58 ± 0.071
323.15 K | 1013.86 ± 0.13 | 1.4223 ± 0.00033 | 12.55 ± 0.058
